Data published in EP4782448A1, “SUBSTITUTED PYRIDOTRIAZOLE COMPOUND, AND PREPARATION METHOD THEREFOR AND USE THEREOF” (Origiant Pharmaceutical Co., Ltd., priority 2023, dated 2025).
Read-outs that look alike come from different tables or passages of the source.

How the values were obtained:
HT-29 cells = assay: In vitro assay for protection of HT-29 cells from necroptosis (TNFα/Smac mimetic/Z-VAD-FMK induction, CCK8 readout); type: cell-based; settings: read-out: HT-29 (EC50)
RIPK1 Kinase = biological target: T1, RIPK1 Kinase (Homo sapiens, UniProt Q13546); assay: biochemical
T1 construct: purchased Eurofins (Kinase Profiler service)
T1 sequence (Q13546 1-671): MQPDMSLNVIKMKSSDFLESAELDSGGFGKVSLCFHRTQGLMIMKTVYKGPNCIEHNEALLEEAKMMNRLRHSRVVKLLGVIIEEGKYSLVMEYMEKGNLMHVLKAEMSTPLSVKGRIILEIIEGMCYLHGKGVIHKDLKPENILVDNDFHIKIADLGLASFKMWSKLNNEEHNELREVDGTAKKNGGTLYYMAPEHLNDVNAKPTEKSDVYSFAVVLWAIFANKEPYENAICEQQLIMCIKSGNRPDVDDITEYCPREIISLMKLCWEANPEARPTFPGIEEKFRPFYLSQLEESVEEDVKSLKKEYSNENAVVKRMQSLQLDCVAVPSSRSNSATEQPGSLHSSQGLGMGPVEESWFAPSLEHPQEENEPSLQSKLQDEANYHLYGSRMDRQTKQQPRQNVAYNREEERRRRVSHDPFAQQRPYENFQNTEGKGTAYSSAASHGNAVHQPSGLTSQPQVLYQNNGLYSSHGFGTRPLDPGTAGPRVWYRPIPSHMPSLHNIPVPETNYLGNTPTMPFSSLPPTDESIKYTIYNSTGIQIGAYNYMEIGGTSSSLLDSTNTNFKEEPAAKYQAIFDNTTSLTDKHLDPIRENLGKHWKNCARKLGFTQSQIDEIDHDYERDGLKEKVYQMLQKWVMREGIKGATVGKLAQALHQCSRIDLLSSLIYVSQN
Procedure: This assay was completed using the Kinase Profiler service provided by Eurofins. The experimental method was as follows: The small molecule compound to be tested (0.001-10 µM) and the protein kinase to be tested were incubated with a buffer containing a substrate, 10 mM magnesium acetate, and [γ-^33P-ATP]. The reaction was initiated by adding a Mg\ATPmix. After incubation at room temperature for a period of time, a 3% phosphate solution was added to the buffer to terminate the reaction. Subsequently, 10 µL of the reaction mixture was quantitatively pipetted and dropped onto P30 filter paper. The paper was washed three times with 75 mM phosphate solution and once with methanol. After drying, scintillation fluid was added for scinticounting. The inhibitory activity of the compound was expressed as the half-maximal inhibitory concentration (IC50). The IC50 values were derived by fitting the inhibition rates corresponding to the respective concentration gradients.

MLK2/3 kinase = assay: In vitro MLK2/3 kinase assay (ADP-Glo method, ICE Bioscience); type: biochemical
Procedure: The in vitro MLK2/3 kinase assay utilized the ADP-Glo method provided by ICE Bioscience INC. A drug screening system based on MLK2/3 kinase was employed to evaluate the inhibiting ability of small molecule compounds against kinase activity. The experimental method is as follows: ADP-Glo Method • 1. 2 × ATP/substrate solution and 2 × kinase solution were prepared using kinase reaction buffer. • 2. 40 nL of the compound diluent was transferred into a 384-well plate using an Echo 655. After centrifugation, 2 µL of 2 × kinase solution was added to the 384-well plate, centrifuged at 1000 rpm for 1 min, and incubated at 25°C for 10 min; • 3.2 µL of 2 × substrate and ATP solution was added into the 384-well plate, centrifuged at 1000 rpm for 1 min, and incubated at 25°C for 60 min. • 4. 4 µL of ADP-Glo was transferred to a 384-well plate, centrifuged at 1000 rpm for 1 min, and incubated at 25°C for 40 min. • 5. 8 µL of test solution was transferred to a 384-well plate, centrifuged at 1000 rpm for 1 min, and incubated at 25°C for 40 min. • 6. The luminescence signal was read using a multifunctional microplate reader. • 7. Data Analysis
The IC50 (half inhibitory concentration) of a compound was obtained using the following non-linear fitting formula: Y = Bottom + (Top−Bottom)/(1+10^(∧)((LogIC50−X)*HillSlope)) [formula] • X: Compound concentration log value • Y: Compound inhibition rate (% inh)

[1] = TNFα/Smac mimetic/Z-VAD-FMK for 24 h, inhibition of necroptosis
[2] = compound 0.001-10 µM, read-out: RIPK1(IC50)

Structure (SMILES) | EC50 (HT-29 cells; Homo sapiens, HT-29, 24 h) [nM] | IC50 (RIPK1 Kinase) [nM] | other results
C[C@H](NC(=O)c1cn(C)c2ccc(-c3ccn4nc(NC(=O)CN5CC(O)CC5=O)nc4c3)cc12)c1ccc(F)cc1 (single isomer, unassigned) [Compound 3] | 10 to 100 | 10 to 100 | –
CC(=O)Nc1nc2cc(-c3ccc4c(c3)c(C(=O)NC3CCc5cc(F)ccc53)cn4C)ccn2n1 (single isomer, unassigned) [Compound 127] | 1000 to 10000 | 100 to 1000 | –
C[C@H](NC(=O)c1cn(C)c2ccc(-c3ccn4nc(NC(=O)CN5C6CC7CC(C6)C(O)C5C7)nc4c3)cc12)c1ccc(F)cc1 (some centres unmarked) [Compound 59] | – | – | EC50 (HT-29 cells; [1]): < 1 nM; IC50 (RIPK1 Kinase; [2]): 10 to 100 nM
C[C@H](NC(=O)c1cn(C)c2ccc(-c3ccn4nc(NC(=O)CN(C)CCO)nc4c3)cc12)c1ccc(F)cc1 [Compound 74] | – | 10 to 100 | IC50 (MLK2/3 kinase): 10 to 100 nM
C[C@H](NC(=O)c1cn(C)c2ccc(-c3ccn4nc(NC(=O)CN5CCOCC5)nc4c3)cc12)c1ccc(F)cc1 [Compound 75] | – | 1 to 10 | IC50 (MLK2/3 kinase): 10 to 100 nM
CC(=O)Nc1nc2cc(-c3ccc4c(c3)c(C(=O)N[C@H]3CCc5ccc(F)cc53)cn4C)ccn2n1 [Compound 124] | 1 to 10 | 10 to 100 | –
Cn1cc(C(=O)N2CC(F)CC2c2ccc(F)cc2)c2cc(-c3ccn4nc(NC(=O)C5CC5)nc4c3)ccc21 (centres unmarked) [Compound 156] | – | 10 to 100 | –
Cn1cc(C(=O)N[C@H](c2ccc(F)cc2)C(F)F)c2cc(-c3ccn4nc(NC(=O)C5CC5)nc4c3)ccc21 [Compound 161] | – | 1 to 10 | –
C[C@@H](c1ccc(F)cc1)N(C)C(=O)c1cn(C)c2ccc(-c3ccn4nc(NC(=O)C5CC5)nc4c3)cc12 [Compound 175] | < 1 | 10 to 100 | –
CC(C(=O)Nc1nn(C)c2ccc(-c3ccn4nc(NC(=O)C5CC5)nc4c3)cc12)c1ccc(F)cc1 (centres unmarked) [Compound 182] | – | 100 to 1000 | –
C[C@H](NC(=O)c1nn(C)c2ccc(-c3ccn4nc(NC(=O)CN5CCOCC5)nc4c3)cc12)c1ccc(F)cc1 [Compound 196] | – | 10 to 100 | –
CC(c1ccc(F)cc1)n1cnc(-c2cn(C)c3ccc(-c4ccn5nc(NC(=O)C6CC6)nc5c4)cc23)n1 (centres unmarked) [Compound 210] | – | – | EC50 (HT-29 cells; [1]): 100 to 1000 nM; IC50 (RIPK1 Kinase; [2]): 1000 to 10000 nM
